For 10 molecules, pest or weed control results are on record in US8754242B2, “Herbicides” (Syngenta Crop Protection LLC, priority 2007, dated 2014).

What all share (assay type): in vivo
Test [1] has as its system Alopecurus myosuroides (ALOMY). Nature of the test: Test Example 1 pre-emergence herbicidal activity. The settings on record: Alopecurus myosuroides, 480 h, rate 250 g/ha, evaluated 20 days later, read-out: Pre-emergence activity ALOMY (100=total damage to plant; 0=no damage to plant). The method, boiled down:
(§1)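 Once sown in standard soil, pots received an aqueous spray of the formulated active ingredient, either after one day or after ten days of controlled glasshouse growth. Plants then grew under optimum greenhouse conditions. Herbicidal effect was assessed visually 15 (post-emergence) or 20 (pre-emergence) days later, 100 meaning total plant damage.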

The subject of test [2] is Avena fatua (AVEFA). Nature of the test: Test Example 1 pre-emergence herbicidal activity. To be noted: Avena fatua, 480 h, rate 250 g/ha, evaluated 20 days later, read-out: Pre-emergence activity AVEFA (100=total damage to plant; 0=no damage to plant). Summed up: as §1
Test [3] has as its system Digitaria sanguinalis (DIGSA). Nature of the test: Test Example 1 pre-emergence herbicidal activity. The settings on record: Digitaria sanguinalis, 480 h, rate 250 g/ha, evaluated 20 days later, read-out: Pre-emergence activity DIGSA (100=total damage to plant; 0=no damage to plant). Summed up:
as §1

Test [4] relates to Echinochloa crus-galli (ECHCG). Description: Test Example 1 pre-emergence herbicidal activity. To be noted: Echinochloa crus-galli, 480 h, rate 250 g/ha, evaluated 20 days later, read-out: Pre-emergence activity ECHCG (100=total damage to plant; 0=no damage to plant). Summed up: as §1
For test [5], the system named is Lolium perenne (LOLPE). Nature of the test: Test Example 1 pre-emergence herbicidal activity. The settings on record: Lolium perenne, 480 h, rate 250 g/ha, evaluated 20 days later, read-out: Pre-emergence activity LOLPE (100=total damage to plant; 0=no damage to plant). Summed up: as §1
The subject of test [6] is Setaria faberi (SETFA). Description: Test Example 1 pre-emergence herbicidal activity. To be noted: Setaria faberi, 480 h, rate 250 g/ha, evaluated 20 days later, read-out: Pre-emergence activity SETFA (100=total damage to plant; 0=no damage to plant). The method, boiled down:
as §1

Test [7] relates to Alopecurus myosuroides (ALOMY). Nature of the test: Test Example 1 post-emergence herbicidal activity. The settings on record: 360 h, rate 125 g/ha, evaluated 15 days later, read-out: Post-emergence activity ALOMY (100=total damage to plant; 0=no damage to plant). Summed up:
as §1

Test [8] relates to Avena fatua (AVEFA). Nature of the test: Test Example 1 post-emergence herbicidal activity. The settings on record: 360 h, rate 125 g/ha, evaluated 15 days later, read-out: Post-emergence activity AVEFA (100=total damage to plant; 0=no damage to plant). Summed up:
as §1

Test [9] concerns Digitaria sanguinalis (DIGSA). Nature of the test: Test Example 1 post-emergence herbicidal activity. The settings on record: 360 h, rate 125 g/ha, evaluated 15 days later, read-out: Post-emergence activity DIGSA (100=total damage to plant; 0=no damage to plant). Summed up: as §1
For test [10], the system named is Echinochloa crus-galli (ECHCG). Nature of the test: Test Example 1 post-emergence herbicidal activity. The settings on record: 360 h, rate 125 g/ha, evaluated 15 days later, read-out: Post-emergence activity ECHCG (100=total damage to plant; 0=no damage to plant). Summed up:
as §1

Test [11] has as its system Lolium perenne (LOLPE). Description: Test Example 1 post-emergence herbicidal activity. To be noted: 360 h, rate 125 g/ha, evaluated 15 days later, read-out: Post-emergence activity LOLPE (100=total damage to plant; 0=no damage to plant). The method, boiled down: as §1
For test [12], the system named is Setaria faberi (SETFA). Nature of the test: Test Example 1 post-emergence herbicidal activity. To be noted: 360 h, rate 125 g/ha, evaluated 15 days later, read-out: Post-emergence activity SETFA (100=total damage to plant; 0=no damage to plant). The method, boiled down:
as §1

Each structure is given as a SMILES string.

As for `CCc1cc(C)cc(CC)c1C1=C(O)[C@@H]2[C@@H]3O[C@@H](C[C@H]3c3ccc(Cl)cc3C)[C@@H]2C1=O` (racemic) [Example T165], the pest or weed control at 250 g/ha stood at 70% in test [1]; 20% in the test on Avena fatua (AVEFA) [2]; 50% in [3]; 80% in test [4]; 80% in the test with Lolium perenne (LOLPE) [5]; 70% in the test with Setaria faberi (SETFA) [6]. Moreover, the pest or weed control at 125 g/ha stood at 80% in test [7]; 30% in the test with Avena fatua (AVEFA) [8]; 70% in test [9]; 100% in [10]; 80% in the test on Lolium perenne (LOLPE) [11]; 90% in the test with Setaria faberi (SETFA) [12].
With `CCc1cc(C)cc(CC)c1C1=C(O)[C@@H]2[C@@H]3O[C@@H](C[C@H]3c3ccccc3F)[C@@H]2C1=O` (racemic) [Example T170], the pest or weed control at 250 g/ha in [1] amounted to 80%; in the test with Avena fatua (AVEFA) [2], 40%; in test [3], 70%; in test [4], 80%; with Lolium perenne (LOLPE) [5], 90%; in the test on Setaria faberi (SETFA) [6] it was 70%. Moreover, the pest or weed control at 125 g/ha in [7] was 80%; with Avena fatua (AVEFA) [8], 70%; in [9], 40%; in test [10], 100%; with Lolium perenne (LOLPE) [11], 80%; with Setaria faberi (SETFA) [12], 40%.
Regarding `CCc1cc(C)cc(CC)c1C1=C(O)[C@@H]2[C@@H]3O[C@@H](C[C@H]3c3cccc(C(C)=O)c3)[C@@H]2C1=O` (racemic) [Example T174], the pest or weed control at 250 g/ha amounted to 30% in [1]; 30% in the test on Avena fatua (AVEFA) [2]; 40% in [3]; 0% in test [4]; 30% in the test with Lolium perenne (LOLPE) [5]; 0% in the test on Setaria faberi (SETFA) [6]. The pest or weed control at 125 g/ha was found to be 70% in [7]; 70% with Avena fatua (AVEFA) [8]; 70% in [9]; 80% in test [10]; 40% with Lolium perenne (LOLPE) [11]; 50% in the test with Setaria faberi (SETFA) [12].
Take `CCc1cc(C)cc(CC)c1C1=C(O)[C@@H]2[C@@H]3O[C@@H](C[C@H]3c3ccc(F)c(F)c3)[C@@H]2C1=O` (racemic) [Example T178]: the pest or weed control at 250 g/ha in test [1] was found to be 70%; in the test with Avena fatua (AVEFA) [2], 40%; in test [3], 80%; in test [4] it was 100%; with Lolium perenne (LOLPE) [5], 80%; in the test on Setaria faberi (SETFA) [6], 100%. Also, the pest or weed control at 125 g/ha worked out at 100% in [7]; 90% with Avena fatua (AVEFA) [8]; 100% in test [9]; 100% in [10]; 90% in the test with Lolium perenne (LOLPE) [11]; 100% in the test on Setaria faberi (SETFA) [12].
`CCc1cc(C)cc(CC)c1C1=C(O)[C@@H]2[C@@H]3O[C@@H](C[C@H]3c3ccc(C)cc3)[C@@H]2C1=O` (racemic) [Example T180]: the pest or weed control at 250 g/ha in test [1] was 30%; in the test with Avena fatua (AVEFA) [2], 20%; in [3], 80%; in [4] it was 60%; in the test with Lolium perenne (LOLPE) [5], 70%; in the test on Setaria faberi (SETFA) [6] it was 40%. The pest or weed control at 125 g/ha in test [7] is 90%; with Avena fatua (AVEFA) [8], 70%; in test [9], 90%; in test [10] it was 100%; in the test on Lolium perenne (LOLPE) [11], 70%; with Setaria faberi (SETFA) [12] it was 100%.
Consider `CCc1cc(C)cc(CC)c1C1=C(O)[C@@H]2[C@@H]3O[C@@H](C[C@H]3c3cc(OC)c(OC)c(OC)c3)[C@@H]2C1=O` (racemic) [Example T181], for which the pest or weed control at 250 g/ha stood at 40% in test [1]; 40% in the test on Avena fatua (AVEFA) [2]; 90% in [3]; 100% in [4]; 80% in the test with Lolium perenne (LOLPE) [5]; 70% with Setaria faberi (SETFA) [6]. Moreover, the pest or weed control at 125 g/ha in test [7] is 90%; with Avena fatua (AVEFA) [8] it was 90%; in test [9], 80%; in [10] it was 100%; in the test with Lolium perenne (LOLPE) [11], 80%; in the test on Setaria faberi (SETFA) [12], 100%.
With `CCc1cc(C)cc(CC)c1C1=C(O)[C@@H]2[C@@H]3O[C@@H](C[C@H]3c3cc([N+](=O)[O-])ccc3C)[C@@H]2C1=O` (racemic) [Example T184], the pest or weed control at 250 g/ha in test [1] was determined as 30%; with Avena fatua (AVEFA) [2], 60%; in test [3], 70%; in test [4], 60%; with Lolium perenne (LOLPE) [5] it was 70%; in the test with Setaria faberi (SETFA) [6], 90%. Further, the pest or weed control at 125 g/ha turned out to be 10% in test [7]; 0% in the test with Avena fatua (AVEFA) [8]; 20% in test [9]; 100% in test [10]; 10% in the test on Lolium perenne (LOLPE) [11]; 50% in the test on Setaria faberi (SETFA) [12].
Turning to `Cc1cc(C)c(C2=C(O)[C@@H]3[C@@H]4O[C@@H](C[C@H]4c4cc(C(F)(F)F)nc(C(F)(F)F)c4)[C@@H]3C2=O)c(C)c1` (racemic) [Example T199], the pest or weed control at 250 g/ha in test [1] is 0%; in the test with Avena fatua (AVEFA) [2], 50%; in [3], 100%; in test [4] it was 80%; in the test on Lolium perenne (LOLPE) [5], 60%; in the test on Setaria faberi (SETFA) [6], 60%. For the same molecule, the pest or weed control at 125 g/ha in test [7] is 100%; in the test on Avena fatua (AVEFA) [8] it was 100%; in test [9] it was 100%; in [10], 100%; with Lolium perenne (LOLPE) [11] it was 60%; with Setaria faberi (SETFA) [12], 80%.
In the case of `Cc1cc(C)c(C2=C(O)[C@@H]3[C@@H]4O[C@@H](C[C@H]4c4ccc(C(F)(F)F)cn4)[C@@H]3C2=O)c(C)c1` (racemic) [Example T200], the pest or weed control at 250 g/ha in test [1] stood at 0%; with Avena fatua (AVEFA) [2] it was 0%; in test [3], 70%; in test [4], 90%; in the test with Lolium perenne (LOLPE) [5], 70%; with Setaria faberi (SETFA) [6] it was 70%. Moreover, the pest or weed control at 125 g/ha in [7] stood at 70%; in the test on Avena fatua (AVEFA) [8], 80%; in test [9] it was 100%; in test [10] it was 100%; in the test on Lolium perenne (LOLPE) [11] it was 80%; with Setaria faberi (SETFA) [12] it was 100%.
`CCC(C)C(=O)OC1=C(c2c(C)cc(C)cc2C)C(=O)[C@@H]2[C@H]1[C@H]1CC[C@@H]2O1` (stereo partly drawn) [Example P9]: the pest or weed control at 250 g/ha in test [1] worked out at 100%; with Avena fatua (AVEFA) [2], 100%; in [3], 90%; in [4], 80%; with Lolium perenne (LOLPE) [5], 100%; in the test on Setaria faberi (SETFA) [6], 80%. The pest or weed control at 125 g/ha turned out to be 100% in [7]; 90% in the test on Avena fatua (AVEFA) [8]; 80% in [9]; 90% in test [10]; 100% in the test on Lolium perenne (LOLPE) [11]; 80% in the test on Setaria faberi (SETFA) [12].
